Test results from patent EP4624472A1, “DEGRADER INCLUDING NOVEL C-MET PROTEIN LIGAND AND PHARMACEUTICAL COMPOSITION INCLUDING SAME” (Innocure Therapeutics, Inc., priority 2022, dated 2024).

Assays:
c-MET [1] = biological target: T1, c-MET (Homo sapiens, UniProt P08581, DEL964-1010); test: c-MET protein degradation (Simple Western) in Hs746T cells; type: cell-based; conditions: Hs746T (c-MET exon 14 skipping mutant), gastric cancer cell line treated 24 hours; c-MET expression normalized to GAPDH, 0.1% DMSO = 100%; read-out: In vitro cell viability assay (nM) Hs746T DC50
T1 construct: To evaluate the degradation efficacy of the compounds of the present invention for c-MET expressed in cells; endogenous in cells; host or cells: Hs746T (human gastric cancer cell line)
Method: (§1) The c-MET overexpressing human gastric cancer cell lines MKN45 and SNU638 were cultured in RPMI medium with 10% fetal bovine serum, penicillin (100 U/ml), and streptomycin ([…]), and the c-MET exon 14 skipping mutant human gastric cancer cell line Hs746T was cultured in DMEM media. The c-MET overexpressing human lung cancer cell line EBC-1 was cultured in MEM media with the addition of 10% fetal bovine serum, penicillin (100U/ml), and streptomycin ([…]). The normal cell line WI-38 derived from human lung tissue was cultured in EMEM medium with the addition of 10% fetal bovine serum, penicillin (100U/ml), and streptomycin ([…]).
(§2) The compound synthesized in accordance with the present invention was prepared with a raw material solution of 10 mM dissolved in DMSO (dimethyl sulfoxide), and was sequentially diluted and processed.
(§3) To evaluate the degradation efficacy of the compounds of the present invention for c-MET expressed in cells, cells were dispensed in a 12-well plate at a concentration of 2 × 10^5 cells/well, and then gastric cancer cell lines were treated with samples for 24 hours and lung cancer cell lines were treated for 48 hours.
(§4) To perform a western blotting assay to confirm protein expression, cells treated with a compound treated with 40 µL of RIPA buffer with a protease inhibitor for 30 minutes, collected cell lysate using a scraper on ice, and centrifuged at 4°C 15,000 rpm for 30 min to obtain a protein-containing supernatant.
(§5) Protein expression was then measured using the Simple Western Automated Western Blot System Abby instrument using 3 µg of protein for each sample. SDS and heat-induced denaturation proteins were separated by molecular weight, attached to the capillary, reacted with anti-c-MET or anti-GAPDH antibodies, which are primary antibodies, and then reacted with HRP-conjugated secondary antibodies, and analyzed the protein expression signal with compass software.
(§6) Protein expression was normalized based on the expression value of GAPDH, and the protein expression amount in each sample was measured as a percentage (%) based on 100% of samples treated with 0.1% DMSO carrier, and DC50 (concentration of a compound where 50% protein inhibition is achieved) was calculated from the change in protein expression amount due to compound treatment.

c-MET [2] = biological target: T2, c-MET (Homo sapiens, UniProt P08581); test: c-MET protein degradation (Simple Western) in SNU-638 cells; type: cell-based; parameters: To evaluate the degradation efficacy of the compounds of the present invention for c-MET expressed in cells; endogenous in cells; conditions: SNU-638, gastric cancer cell line treated 24 hours; c-MET expression normalized to GAPDH, 0.1% DMSO = 100%; read-out: In vitro cell viability assay (nM) SNU-638 DC50
Method: as §1, §2, §3, §4, §5, §6

Hs746T = test: In vitro cell viability assay (cancer cell anti-proliferative activity), Hs746T; type: cell-based; conditions: Homo sapiens; Hs746T cells, treated 72 hours
Method: as §1, §2
(§7) In order to evaluate the inhibitory activity on cell growth, cells were dispensed in a 96-well plate at a concentration of 5,000 cells/well and then treated with the compound of the present invention prepared at various concentrations for 72 hours. The absorbance measurement at 450 nm was calculated using the GraphicPad Prism 8.0 software. The IC50 value (concentration of the compound achieving 50% cytostatic inhibition) is the average value of the measured results. […]

EBC-1 = test: In vitro cell viability assay (cancer cell anti-proliferative activity), EBC-1; type: cell-based, human; conditions: Homo sapiens; EBC-1 cells, treated 72 hours; read-out: In vitro cell viability assay (nM) EBC-1 IC50
Method: as §1, §2, §7

SNU-638 = test: In vitro cell viability assay (cancer cell anti-proliferative activity), SNU-638; type: cell-based, human; conditions: Homo sapiens; SNU-638 cells, treated 72 hours; read-out: In vitro cell viability assay (nM) SNU-638 IC50
Method: as §1, §2, §7

c-MET [3] = biological target: T2, c-MET; test: c-MET protein degradation (Simple Western) in EBC-1 cells; type: cell-based; parameters: To evaluate the degradation efficacy of the compounds of the present invention for c-MET expressed in cells; endogenous in cells; host or cells: EBC-1 (human lung cancer cell line); conditions: EBC-1, lung cancer cell line treated 48 hours; c-MET expression normalized to GAPDH, 0.1% DMSO = 100%; read-out: In vitro cell viability assay (nM) EBC-1 DC50
Method: as §1, §2, §3, §4, §5, §6

T2 sequence (P08581 25-1390): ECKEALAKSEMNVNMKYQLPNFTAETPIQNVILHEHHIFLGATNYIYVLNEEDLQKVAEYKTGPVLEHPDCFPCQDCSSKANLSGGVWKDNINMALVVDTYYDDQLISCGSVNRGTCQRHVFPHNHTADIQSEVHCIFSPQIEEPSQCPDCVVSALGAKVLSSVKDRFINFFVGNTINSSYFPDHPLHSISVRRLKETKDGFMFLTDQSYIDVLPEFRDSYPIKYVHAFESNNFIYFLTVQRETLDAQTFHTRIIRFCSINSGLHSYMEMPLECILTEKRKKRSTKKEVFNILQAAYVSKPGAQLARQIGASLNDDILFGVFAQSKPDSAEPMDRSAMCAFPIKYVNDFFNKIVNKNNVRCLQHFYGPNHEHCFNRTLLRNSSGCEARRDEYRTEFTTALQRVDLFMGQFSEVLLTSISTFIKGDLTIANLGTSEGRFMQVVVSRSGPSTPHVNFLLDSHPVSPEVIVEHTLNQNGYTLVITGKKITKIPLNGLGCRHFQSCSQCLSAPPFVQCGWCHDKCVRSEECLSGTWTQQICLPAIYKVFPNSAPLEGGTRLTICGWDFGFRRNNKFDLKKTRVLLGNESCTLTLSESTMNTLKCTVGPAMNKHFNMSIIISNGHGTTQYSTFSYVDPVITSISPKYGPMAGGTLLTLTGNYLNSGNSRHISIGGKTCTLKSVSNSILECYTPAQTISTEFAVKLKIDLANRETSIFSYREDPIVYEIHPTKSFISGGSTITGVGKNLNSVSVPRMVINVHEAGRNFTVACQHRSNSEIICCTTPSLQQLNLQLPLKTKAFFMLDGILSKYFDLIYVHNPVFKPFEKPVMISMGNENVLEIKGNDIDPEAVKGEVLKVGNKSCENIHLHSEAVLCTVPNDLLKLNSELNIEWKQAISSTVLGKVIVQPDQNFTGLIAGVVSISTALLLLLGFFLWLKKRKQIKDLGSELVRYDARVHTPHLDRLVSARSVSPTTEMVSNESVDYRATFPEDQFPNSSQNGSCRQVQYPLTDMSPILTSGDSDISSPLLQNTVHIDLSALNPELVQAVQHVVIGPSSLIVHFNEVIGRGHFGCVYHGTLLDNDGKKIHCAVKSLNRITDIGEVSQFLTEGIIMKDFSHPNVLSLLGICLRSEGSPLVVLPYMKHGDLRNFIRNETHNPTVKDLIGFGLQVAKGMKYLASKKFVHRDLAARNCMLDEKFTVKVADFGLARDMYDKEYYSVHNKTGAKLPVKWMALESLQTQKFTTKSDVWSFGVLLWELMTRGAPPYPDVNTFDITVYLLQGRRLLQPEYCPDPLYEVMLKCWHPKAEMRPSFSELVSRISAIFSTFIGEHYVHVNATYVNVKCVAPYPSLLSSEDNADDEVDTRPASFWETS
T1 sequence (P08581 with tags, fused parts or gaps DEL964-1010 limits assumed): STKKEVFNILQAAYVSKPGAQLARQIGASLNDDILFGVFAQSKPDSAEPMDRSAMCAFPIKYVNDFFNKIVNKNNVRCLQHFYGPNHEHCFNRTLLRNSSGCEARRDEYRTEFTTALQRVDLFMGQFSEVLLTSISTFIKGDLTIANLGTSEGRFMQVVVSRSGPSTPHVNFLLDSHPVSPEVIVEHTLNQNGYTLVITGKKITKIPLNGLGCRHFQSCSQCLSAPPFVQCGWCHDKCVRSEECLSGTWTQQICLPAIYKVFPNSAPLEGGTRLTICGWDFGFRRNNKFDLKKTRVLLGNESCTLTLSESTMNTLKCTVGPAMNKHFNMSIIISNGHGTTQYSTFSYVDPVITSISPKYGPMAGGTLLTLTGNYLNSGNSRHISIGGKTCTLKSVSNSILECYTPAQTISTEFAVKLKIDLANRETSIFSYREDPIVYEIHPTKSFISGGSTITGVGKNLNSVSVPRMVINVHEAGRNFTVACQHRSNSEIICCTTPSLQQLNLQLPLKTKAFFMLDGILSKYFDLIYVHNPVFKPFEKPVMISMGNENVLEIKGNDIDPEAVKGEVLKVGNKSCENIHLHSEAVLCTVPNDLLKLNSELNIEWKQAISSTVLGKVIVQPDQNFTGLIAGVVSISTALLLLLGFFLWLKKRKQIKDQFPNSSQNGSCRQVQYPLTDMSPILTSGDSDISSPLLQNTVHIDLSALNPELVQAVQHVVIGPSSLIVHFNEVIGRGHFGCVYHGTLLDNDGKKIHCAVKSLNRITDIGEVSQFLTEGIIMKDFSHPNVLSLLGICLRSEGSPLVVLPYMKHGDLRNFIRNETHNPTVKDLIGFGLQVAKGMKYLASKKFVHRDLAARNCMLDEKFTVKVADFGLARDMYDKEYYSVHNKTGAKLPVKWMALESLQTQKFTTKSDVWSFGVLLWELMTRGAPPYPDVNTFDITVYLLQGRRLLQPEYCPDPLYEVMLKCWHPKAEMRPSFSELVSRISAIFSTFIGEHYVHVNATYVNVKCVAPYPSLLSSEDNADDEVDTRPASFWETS
T1 sequence (P08581 25-307 partner limits assumed): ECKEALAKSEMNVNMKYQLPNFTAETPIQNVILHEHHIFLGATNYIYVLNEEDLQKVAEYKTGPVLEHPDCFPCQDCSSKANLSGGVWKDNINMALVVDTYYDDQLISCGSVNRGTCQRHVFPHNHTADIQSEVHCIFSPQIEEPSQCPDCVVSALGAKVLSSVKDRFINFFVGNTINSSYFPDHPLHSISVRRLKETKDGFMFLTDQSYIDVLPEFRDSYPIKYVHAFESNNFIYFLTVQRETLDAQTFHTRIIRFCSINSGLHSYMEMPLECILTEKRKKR

Row | Structure (SMILES) | DC50 (c-MET [1]) [nM] | DC50 (c-MET [2]) [nM] | IC50 (Hs746T) [nM] | IC50 (EBC-1) [nM] | IC50 (SNU-638) [nM] | DC50 (c-MET [3]) [nM]
1 | Cn1cc(-c2cnc3c(nnn3C[C@@H]3CN(c4ncc(N5CC(CN6CCN(c7ccc8c(=O)n(C9CCC(=O)NC9=O)ncc8c7)CC6)C5)cn4)CCO3)n2)cn1 (stereo partly drawn) [Example D-1, 3-(6-(4-((1-(2-((S)-2-((5-(1-methyl-1H-pyrazole-4-yl)-1H-[1,2,3]triazolo[4,5-b]pyrazine-1-yl)methyl)morpholine-5-il)azetidin-3-il)methyl)piperazine-1-il)piperazine-1-il)1-oxopthalazine-2(1H)-day)piperidine-2,6-dione] | ≤ 100 | > 1000 | ≤ 100 | ≤ 100 | ≤ 100 | ≤ 100
2 | Cc1nn(C2CCC(=O)NC2=O)c(=O)c2ccc(N3CCN(CC4CCN(CC5CN(c6cnc(N7CCO[C@H](Cn8nnc9nc(-c%10cnn(C)c%10)cnc98)C7)nc6)C5)CC4)CC3)cc12 (stereo partly drawn) [Example D-4] | ≤ 100 | ≤ 1000 | ≤ 100 | ≤ 100 | ≤ 100 | ≤ 100
3 | Cn1cc(-c2cnc3c(nnn3C[C@@H]3CN(c4ncc(N5CC(CN6CCN(CC7CCN(c8ccc(NC9CCC(=O)NC9=O)cc8F)CC7)CC6)C5)cn4)CCO3)n2)cn1 (stereo partly drawn) [Example D-5] | > 1000 | > 1000 | > 1000 | ≤ 100 | ≤ 100 | > 1000
4 | Cc1nn(C2CCC(=O)NC2=O)c(=O)c2ccc(N3CCO[C@@H](COc4cnc(-c5cccc(Cn6nc(-c7cccc(C#N)c7)ccc6=O)c5)nc4)C3)cc12 (stereo partly shown) [Example E-1] | ≤ 100 | > 1000 | ≤ 100 | ≤ 100 | ≤ 100 | ≤ 100
5 | N#Cc1cccc(-c2ccc(=O)n(Cc3cccc(-c4ncc(OC[C@H]5CN(c6ccc7c(=O)n(C8CCC(=O)NC8=O)ncc7c6)CCO5)cn4)c3)n2)c1 (stereo partly drawn) [Example E-2, 3-(1-(3-(5-(((2R)-4-(2-(2,6-dioxopiperidin-3-yl)-1-oxo-1,2-dihydrophthalazine-6-yl)morpholine-2-yl)methoxy)pyrimidin-2-yl)benzyl)6-oxo-1,6-dihydropyridazine-3-il)benzonitrile] | ≤ 100 | – | ≤ 100 | ≤ 100 | – | ≤ 100
6 | N#Cc1cccc(-c2ccc(=O)n(Cc3cccc(-c4ncc(OC[C@@H]5CN(c6ccc(NC7CCC(=O)NC7=O)cc6F)CCO5)cn4)c3)n2)c1 (stereo partly drawn) [Example E-3, 3-(1-(3-(5-(((2R)-4-(4-((2,6-dioxopiperidin-3-yl)amino)-2-fluorophenyl)morpholine-2-yl)methoxy)pyrimidine-2-yl)benzyl)6-oxo-1,6-dihydropyridazine-3-il)benzonitrile] | – | > 1000 | – | ≤ 100 | ≤ 100 | > 1000
7 | N#Cc1cccc(-c2ccc(=O)n(Cc3cccc(-c4ncc(OCCN5CCN(c6ccc7c(=O)n(C8CCC(=O)NC8=O)ncc7c6)CC5)cn4)c3)n2)c1 (stereo not shown) [Example E-4] | ≤ 100 | > 1000 | ≤ 100 | ≤ 100 | ≤ 100 | ≤ 100
8 | Cc1nn(C2CCC(=O)NC2=O)c(=O)c2ccc(N3CCN(CCOc4cnc(-c5cccc(Cn6nc(-c7cccc(C#N)c7)ccc6=O)c5)nc4)CC3)cc12 (stereo not shown) [Example E-5] | ≤ 100 | ≤ 100 | ≤ 100 | ≤ 100 | ≤ 100 | ≤ 100
9 | N#Cc1cccc(-c2ccc(=O)n(Cc3cccc(-c4ncc(OCCN5CCN(c6ccc(NC7CCC(=O)NC7=O)cc6F)CC5)cn4)c3)n2)c1 (stereo not shown) [Example E-6, 3-(1-(3-(5-(2-(4-(4-((2,6-dioxopiperidin-3-yl)amino)2-fluorophenyl)piperazine-1-yl)ethoxy)pyrimidine-2-yl)benzyl)6-oxo-1,6-dihydropyridazine-3-yl)benzonitrile] | – | > 1000 | – | ≤ 100 | ≤ 100 | > 1000
10 | N#Cc1cccc(-c2ccc(=O)n(Cc3cccc(-c4ncc(N5CCN(CC6CN(c7ccc(NC8CCC(=O)NC8=O)cc7F)C6)CC5)cn4)c3)n2)c1 (stereo not shown) [Example E-7] | – | ≤ 100 | – | ≤ 100 | ≤ 100 | ≤ 100
11 | N#Cc1cccc(-c2ccc(=O)n(Cc3cccc(-c4ncc(N5CCN(CC6CCN(c7ccc(NC8CCC(=O)NC8=O)cc7F)CC6)CC5)cn4)c3)n2)c1 (stereo not shown) [Example E-8] | ≤ 100 | > 1000 | ≤ 100 | ≤ 100 | ≤ 100 | ≤ 100
